The molecules below were run against T1, CFTR (Homo sapiens, UniProt P13569, DEL508-508) (assay: HBE Assay: Ussing chamber assay of CFTR-mediated short-circuit currents in F508del/MF-HBE cells with 1 μM Ivacaftor). Conditions: range of concentrations with 1 μM Ivacaftor, 18-24 hours, 20% human serum.
T1 construct: endogenous in cells; host or cells: primary human bronchial epithelial cells, F508del/MF genotype
Type: cell-based
Method: Ussing chamber experiments were performed using human bronchial epithelial (HBE) cells derived from CF subjects heterozygous for F508del and a minimal function CFTR mutation (F508del/MF-HBE) and cultured as previously described (Neuberger T, Burton B, Clark H, Van Goor F Methods Mol Biol 2011:741:39-54). After four days the apical media was removed, and the cells were grown at an air liquid interface for >14 days prior to use.
(§1) To isolate the CFTR-mediated short-circuit (ISC) current, F508del/MF-HBE grown on Costar® Snapwell™ cell culture inserts were mounted in an Ussing chamber and the transepithelial ISC was measured under voltage-clamp recording conditions (Vhold=0 mV) at 37° C. The basolateral solution contained (in mM) 145 NaCl, 0.83 K2HIPO4, 3.3 KH2PO4, 1.2 MgCl2, 1.2 CaCl2), 10 Glucose, 10 HEPES (pH adjusted to 7.4 with NaOH) and the apical solution contained (in mM) 145 NaGluconate, 1.2 MgCl2, 1.2 CaCl2), 10 glucose, 10 HEPES (pH adjusted to 7.4 with NaOH) and 30 μM amiloride to block the epithelial sodium channel. Forskolin (20 μM) was added to the apical surface to activate CFTR, followed by apical addition of a CFTR inhibitor cocktail consisting of BPO, GlyH-101, and CFTR inhibitor 172 (each at 20 μM final assay concentration) to specifically isolate CFTR currents. The CFTR-mediated ISC (μA/cm^2) for each condition was determined from the peak forskolin response to the steady-state current following inhibition.
The activity of the CFTR corrector compounds on the CFTR-mediated ISC was determined in Ussing chamber studies as described above. The F508del/MF-HBE cell cultures were either incubated with the corrector compounds at a range of concentrations in combination with 1 μM Ivacaftor or were incubated with the corrector compounds at a single fixed concentration of 10 μM in combination with 1 μM Ivacaftor for 18-24 hours at 37° C. and in the presence of 20% human serum. The concentration of corrector compounds with 1 μM Ivacaftor during the 18-24 hours incubations was kept constant throughout the Ussing chamber measurement of the CFTR-mediated ISC to ensure compounds were present throughout the entire experiment.
as §1, with “K2HPO4,” for “K2HIPO4,”

T1 sequence (P13569 with tags, fused parts or gaps DEL508-508): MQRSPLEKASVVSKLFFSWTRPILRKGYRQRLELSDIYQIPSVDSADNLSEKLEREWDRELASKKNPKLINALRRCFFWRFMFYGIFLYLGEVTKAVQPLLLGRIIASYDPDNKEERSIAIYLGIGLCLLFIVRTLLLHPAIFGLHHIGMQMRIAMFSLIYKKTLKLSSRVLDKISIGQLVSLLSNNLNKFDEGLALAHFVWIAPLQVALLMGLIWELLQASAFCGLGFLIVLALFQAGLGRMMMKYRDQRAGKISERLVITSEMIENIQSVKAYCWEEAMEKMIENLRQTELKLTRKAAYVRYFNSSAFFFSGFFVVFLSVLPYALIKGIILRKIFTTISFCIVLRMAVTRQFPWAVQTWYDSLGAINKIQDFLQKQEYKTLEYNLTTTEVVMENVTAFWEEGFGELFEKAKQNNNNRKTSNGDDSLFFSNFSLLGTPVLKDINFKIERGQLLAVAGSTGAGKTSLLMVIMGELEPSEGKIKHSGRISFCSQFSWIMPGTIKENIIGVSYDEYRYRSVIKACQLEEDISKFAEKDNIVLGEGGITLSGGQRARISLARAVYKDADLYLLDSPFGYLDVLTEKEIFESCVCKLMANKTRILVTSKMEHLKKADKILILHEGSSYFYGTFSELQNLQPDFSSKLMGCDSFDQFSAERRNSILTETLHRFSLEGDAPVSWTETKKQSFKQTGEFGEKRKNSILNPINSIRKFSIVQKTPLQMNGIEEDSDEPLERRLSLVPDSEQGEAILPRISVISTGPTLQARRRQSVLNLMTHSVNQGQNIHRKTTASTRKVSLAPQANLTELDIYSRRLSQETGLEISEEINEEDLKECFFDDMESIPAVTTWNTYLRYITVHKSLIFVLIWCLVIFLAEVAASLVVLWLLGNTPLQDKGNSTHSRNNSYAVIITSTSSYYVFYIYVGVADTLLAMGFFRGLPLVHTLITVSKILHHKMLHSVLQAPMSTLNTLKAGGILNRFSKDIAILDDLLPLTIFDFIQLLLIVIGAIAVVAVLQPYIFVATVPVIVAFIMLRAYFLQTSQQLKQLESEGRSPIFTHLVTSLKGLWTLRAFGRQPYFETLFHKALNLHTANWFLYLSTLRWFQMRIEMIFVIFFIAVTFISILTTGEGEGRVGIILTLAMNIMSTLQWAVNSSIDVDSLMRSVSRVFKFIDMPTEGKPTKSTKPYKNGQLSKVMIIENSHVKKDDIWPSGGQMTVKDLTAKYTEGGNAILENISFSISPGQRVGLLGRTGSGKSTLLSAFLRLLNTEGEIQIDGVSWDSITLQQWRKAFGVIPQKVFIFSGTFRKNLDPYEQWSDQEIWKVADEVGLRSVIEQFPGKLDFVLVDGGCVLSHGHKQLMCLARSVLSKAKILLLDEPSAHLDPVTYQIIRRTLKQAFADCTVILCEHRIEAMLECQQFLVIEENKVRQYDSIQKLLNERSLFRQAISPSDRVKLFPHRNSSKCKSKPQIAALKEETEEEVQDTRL

EC50 [nM] | SMILES
< 1000 | Cc1cccc(C)c1-c1nc2nc(c1C)OC[C@@H](CC1CC1)N(Cc1ncc(OC3CCC3)cn1)C(=O)c1cccc(c1)S(=O)(=O)N2 [Compound 346]
< 1000 | COc1c2nc(nc1-c1c(C)cccc1C)NS(=O)(=O)c1cccc(c1)C(=O)N(Cc1ncc(OC3CCC3)cn1)[C@H](CC(C)C)CO2 [Compound 349]

Same assay, conditions: single fixed concentration of 10 μM with 1 μM Ivacaftor, 18-24 hours, 20% human serum

HBE Activity at 10 μM (%) | SMILES
+++ (+++ is >60%) | Cc1cccc(C)c1-c1nc2nc(c1F)OC[C@@H](CC1CCC1)N(Cc1ncc(OC(C)C)cn1)C(=O)c1cccc(c1)S(=O)(=O)N2 [Compound 354]

Same assay, conditions: single fixed concentration of 10 μM, with 1 μM Ivacaftor, 20% human serum

HBE Activity at 10 μM | SMILES
+++ (+++ is >600%) | Cc1cccc(CC(C)C)c1-c1nc2nc(c1C(F)(F)F)OC[C@@H](CC(C)(C)C)N(Cc1ncc(N3CCOCC3)cn1)C(=O)c1cccc(c1)S(=O)(=O)N2 (single isomer, unassigned) [Compound 213]
+++ (+++ is >600%) | Cc1cccc(CC2CCCC2)c1-c1nc2nc(c1C)OC[C@@H](CC(C)(C)C)N(Cc1ncc(N3CCC(C)(C)C3)cn1)C(=O)c1cccc(c1)S(=O)(=O)N2 (atropisomer, axis not shown) [Compound 270]
+++ (+++ is >600%) | Cc1cccc(CC2CCCC2)c1-c1nc2nc(c1C)OC[C@@H](CC(C)(C)C)NC(=O)c1cccc(c1)S(=O)(=O)N2 (atropisomer, axis not shown) [Compound 224]
+++ (+++ is >600%) | Cc1cccc(OC(C)C)c1-c1nc2nc(c1C)OC[C@@H](CC(C)(C)C)N(Cc1cnc(N(C)CC(C)(C)C)cn1)C(=O)c1cccc(c1)S(=O)(=O)N2 [Compound 222]
++ (++ is 30-60%) | Cc1cccc(COC(C)C)c1-c1nc2nc(c1C)OC[C@@H](CC(C)(C)C)N(Cc1ncc(N3CCC(C)(C)C3)cn1)C(=O)c1cccc(c1)S(=O)(=O)N2 (atropisomer, axis not shown; (M)) [Compound 220, (5M,11R)-11-(2,2-dimethylpropyl)-12-{[5-(3,3-dimethylpyrrolidin-1-yl)pyrimidin-2-yl]methyl}-7-methyl-6-{2-methyl-6-[(propan-2-yloxy)methyl]phenyl}-9-oxa-2λ^6-thia-3,5,12,19-tetraazatricyclo[12.3.1.14,8]nonadeca-1(17),4(19),5,7,14(18),15-hexaene-2,2,13-trione]
+++ (+++ is >600%) | Cc1cccc(COC(C)C)c1-c1nc2nc(c1C)OC[C@@H](CC(C)(C)C)N(Cc1nccc(N(C)C(C)C)n1)C(=O)c1cccc(c1)S(=O)(=O)N2 (atropisomer, axis not shown) [Compound 229]
+++ (+++ is >600%) | Cc1cccc(CC(C)C)c1-c1nc2nc(c1C)OC[C@@H](CC(C)C)N(Cc1nccc(N(C)C(C)C)n1)C(=O)c1cccc(c1)S(=O)(=O)N2 (atropisomer, axis not shown) [Compound 231]
+++ (+++ is >600%) | Cc1cccc(CC(C)C)c1-c1nc2nc(c1C)OC[C@@H](C(C)C)N(Cc1nccc(N(C)C(C)C)n1)C(=O)c1cccc(c1)S(=O)(=O)N2 (atropisomer, axis not shown) [Compound 232]
+++ (+++ is >600%) | Cc1cccc(C)c1-c1nc2nc(c1C)OC[C@@H](CC(C)(C)C)N(Cc1ncc(N3CCC(C)(C)CC3)cn1)C(=O)c1cccc(c1)S(=O)(=O)N2 [Compound 192]

Same assay, conditions: with 1 μM Ivacaftor, 18-24 hours, 20% human serum

EC50 [nM] | HBE Max Activity | SMILES
< 1000 | +++ (+++ is >600%) | Cc1cccc(COC(C)C)c1-c1nc2nc(c1C)OC[C@@H](CC(C)(C)C)N(Cc1ncc(N3CCC(C)(C)C3)cn1)C(=O)c1cccc(c1)S(=O)(=O)N2 (single isomer, unassigned) [Compound 221]
1000 to 3000 | +++ (+++ is >600%) | Cc1cccc(CC(C)C)c1-c1nc2nc(c1C)OC[C@@H](C(C)C)N(Cc1ncc(N3CCC(C)(C)C3)cn1)C(=O)c1cccc(c1)S(=O)(=O)N2 [Compound 240]
< 1000 | +++ (+++ is >600%) | Cc1cccc(CC2CCCCC2)c1-c1nc2nc(c1C)OC[C@@H](CC(C)(C)C)N(Cc1ccc(C3CCOCC3)cn1)C(=O)c1cccc(c1)S(=O)(=O)N2 [Compound 257]
< 1000 | +++ (+++ is >600%) | Cc1cccc(CC2CCCCC2)c1-c1nc2nc(c1C(F)(F)F)OC[C@@H](CC(C)(C)C)N(Cc1ncc(N3CCOCC3)cn1)C(=O)c1cccc(c1)S(=O)(=O)N2 (atropisomer, axis not shown) [Compound 244]
< 1000 | +++ (+++ is >600%) | Cc1cccc(CC2CCCCC2)c1-c1nc2nc(c1C)OC[C@@H](CC(C)(C)C)N(Cc1ccc(C3CCCCC3)cn1)C(=O)c1cccc(c1)S(=O)(=O)N2 (atropisomer, axis not shown) [Compound 277]
< 1000 | +++ (+++ is >600%) | Cc1cccc(CC(C)(C)C)c1-c1nc2nc(c1C)OC[C@@H](CC(C)(C)C)N(Cc1ncc(N3CCC(C)(C)C3)cn1)C(=O)c1cccc(c1)S(=O)(=O)N2 (single isomer, unassigned) [Compound 215]
< 1000 | +++ (+++ is >600%) | Cc1cccc(CC2CCCC2)c1-c1nc2nc(c1C)OC[C@@H](CC(C)(C)C)N(Cc1cccc(N(C)C(C)C)n1)C(=O)c1cccc(c1)S(=O)(=O)N2 (atropisomer, axis not shown) [Compound 273]
< 1000 | +++ (+++ is >600%) | Cc1cccc(CC2CCCCC2)c1-c1nc2nc(c1C)OC[C@@H](CC(C)(C)C)N(Cc1ncc(C3CCOCC3)cn1)C(=O)c1cccc(c1)S(=O)(=O)N2 [Compound 251]
< 1000 | +++ (+++ is >600%) | Cc1cccc(CC2CCCCC2)c1-c1nc2nc(c1C)OC[C@@H](CC(C)(C)C)N(Cc1nccc(N(C)C(C)C)n1)C(=O)c1cccc(c1)S(=O)(=O)N2 (atropisomer, axis not shown) [Compound 262]
< 1000 | +++ (+++ is >600%) | Cc1cccc(CC2CCCCC2)c1-c1nc2nc(c1C)OC[C@@H](CC(C)(C)C)N(Cc1ncccc1N1CCOCC1)C(=O)c1cccc(c1)S(=O)(=O)N2 (atropisomer, axis not shown) [Compound 310]
< 1000 | +++ (+++ is >600%) | COc1ccc(CN2C(=O)c3cccc(c3)S(=O)(=O)Nc3nc(c(C)c(-c4c(C)cccc4CC4CCCCC4)n3)OC[C@H]2CC(C)(C)C)nc1 (atropisomer, axis not shown) [Compound 302]
< 1000 | +++ (+++ is >600%) | Cc1cccc(CC(C)C)c1-c1nc2nc(c1C)OC[C@@H](CC(C)C)N(Cc1cccc(N3CCC[C@H]3C)n1)C(=O)c1cccc(c1)S(=O)(=O)N2 (atropisomer, axis not shown) [Compound 237]
< 1000 | +++ (+++ is >600%) | Cc1ccnc(CN2C(=O)c3cccc(c3)S(=O)(=O)Nc3nc(c(C)c(-c4c(C)cccc4CC4CCCCC4)n3)OC[C@H]2CC(C)(C)C)n1 (atropisomer, axis not shown) [Compound 258]
< 1000 | +++ (+++ is >600%) | COCCN(C)c1ccc(CN2C(=O)c3cccc(c3)S(=O)(=O)Nc3nc(c(C)c(-c4c(C)cccc4CC(C)C)n3)OC[C@H]2CC(C)(C)C)nc1 (atropisomer, axis not shown) [Compound 292]

Same assay, conditions: with 1 μM Ivacaftor, 18-24 hours, 20% human serum, compared to known Vertex corrector with 18 μM Tezacaftor and 1 μM Ivacaftor, read-out: HBE Max activity (%)

Emax [%] | SMILES
> 60 | Cc1cccc(C)c1-c1nc2nc(c1C)OC[C@@H](CC1CC1)N(Cc1ncc(OC3CCC3)cn1)C(=O)c1cccc(c1)S(=O)(=O)N2 [Compound 346]
> 60 | COc1c2nc(nc1-c1c(C)cccc1C)NS(=O)(=O)c1cccc(c1)C(=O)N(Cc1ncc(OC3CCC3)cn1)[C@H](CC(C)C)CO2 [Compound 349]

Source: patent US20230374038A1, “MODULATORS OF CYSTIC FIBROSIS TRANSMEMBRANE CONDUCTANCE REGULATOR” (VERTEX PHARMACEUTICALS INCORPORATED, priority 2020, published 2023)
